# Assay results: ChEMBL document CHEMBL3507680, “University of Dundee, Gates Library screen for HepG2 cell viability”
# Assay: Human HepG2 cell viability assay in 384 well format
# Type: toxicity, cell-based
# Design: dose 125 nL, time 70.5 hour; concentration not given beside the values
# Conditions: HepG2 cells, read-out: Inhibition
smiles,measurement,value
COCCN1C[C@@H]2CN(Cc3cccc(F)c3)CCC[C@]2(C(=O)O)C1,cytotoxicity at 70.5 h,20.7%
CN1CCCC(CNC(=O)N2CCN(Cc3ccon3)CC2)C1 (stereo not drawn),cytotoxicity at 70.5 h,-0.171%
COC(=O)c1ccc(Cl)c(NS(=O)(=O)c2cn(C)cn2)c1,cytotoxicity at 70.5 h,9.09%
O=C(Cc1ccc(Cl)s1)Nc1ccc2c(c1)C(=O)NC2=O,cytotoxicity at 70.5 h,-1.77%
Cc1ccc(CC(=O)N(C)CC2(O)CCCN(c3ccccn3)C2)s1 (stereo not drawn),cytotoxicity at 70.5 h,-5.95%
CN(CCc1ccc2c(c1)CCO2)CC1CCS(=O)(=O)C1 (stereo not drawn),cytotoxicity at 70.5 h,-9.73%
Cc1cccc(C(C)(C)NC(=O)CCS(C)(=O)=O)c1,cytotoxicity at 70.5 h,-3.08%
CN(Cc1cnn(C)c1)C(CO)c1cccc(Br)c1 (stereo not drawn),cytotoxicity at 70.5 h,-16.5%
Cn1ncc2c1NC(=O)CC2c1cc2c(cc1Cl)OCO2 (stereo not drawn),cytotoxicity at 70.5 h,17.7%
CCn1ccnc1CNCC(c1ccc(C)s1)N1CCOCC1 (stereo not drawn),cytotoxicity at 70.5 h,-7.92%
CC(NC(=O)c1cccs1)C(=O)NCc1ccccn1 (stereo not drawn),cytotoxicity at 70.5 h,-2.68%
Cc1cc(C(=O)NC2(C#N)CCCC2)c(C)n1-c1cccnc1,cytotoxicity at 70.5 h,-6.05%
CN1CCN(C2CCN(Cc3nnc(C(C)(C)C)o3)CC2)C1=O,cytotoxicity at 70.5 h,-1.9%
Cc1nc(O)cc(CN2C[C@H](NS(=O)(=O)N(C)C)[C@@H](C3CC3)C2)n1,cytotoxicity at 70.5 h,-3.51%
COc1ncccc1CNC(=O)N1CCCC1c1ccsc1 (stereo not drawn),cytotoxicity at 70.5 h,-0.312%
Cn1nccc1NC(=O)CN1CCc2sccc2C1,cytotoxicity at 70.5 h,-11.2%
NS(=O)(=O)CCNC(=O)c1ccc(-c2ccc(F)cc2)cc1F,cytotoxicity at 70.5 h,-6.9%
Cc1nn(C)cc1CNCc1ccc(N(C)C)cc1,cytotoxicity at 70.5 h,1.1%
c1cncc(COCc2nnc3n2CCN(Cc2ccoc2)C3)c1,cytotoxicity at 70.5 h,-9.66%
Cc1nccn1CCC1CCCCN1Cc1ccc(O)cc1Cl (stereo not drawn),cytotoxicity at 70.5 h,15.6%
COc1cc(NC(=O)NC(C2CC2)C2CC2)ccc1N1CCOC1=O,cytotoxicity at 70.5 h,-18%
CC(C1CC1)N(C(=O)NCCCn1nc2ccccn2c1=O)C1CC1 (stereo not drawn),cytotoxicity at 70.5 h,2.18%
Cn1ncc2c1C(COCC1CC1)CN(Cc1ccncc1)C2 (stereo not drawn),cytotoxicity at 70.5 h,-8.73%
CCc1nc(C2CCCN2C(=O)CCn2cncn2)no1 (stereo not drawn),cytotoxicity at 70.5 h,-21.3%
CC1CCN(C[C@H]2CN3CC[C@H]2C[C@@H]3CNC(=O)c2ccco2)CC1,cytotoxicity at 70.5 h,19.1%
NC1CCc2c(ccc(=O)n2Cc2ccncc2)C1 (stereo not drawn),cytotoxicity at 70.5 h,2.44%
CN(Cc1nnc2n1CCC2)C(=O)c1ccc2c(c1)OCO2,cytotoxicity at 70.5 h,-11.9%
CS(=O)(=O)N1CCC(CNC(=O)c2cnccn2)CC1,cytotoxicity at 70.5 h,31.3%
CC(C)NC(=O)CNC(=O)N1CCc2c([nH]c3ccc(Cl)cc23)C1,cytotoxicity at 70.5 h,-7.52%
Cc1nc(C)n(CC(C)C(=O)N2CCC(CN3CCOCC3)CC2)n1 (stereo not drawn),cytotoxicity at 70.5 h,4.58%
COCCn1ccnc1C1CCCN(c2cnccn2)C1 (stereo not drawn),cytotoxicity at 70.5 h,15.5%
Cc1ccccc1C1(CNc2nnc(C)c(C)c2C#N)CCOCC1,cytotoxicity at 70.5 h,-6.42%
CC(CC(=O)O)CC(=O)Nc1sc2c(c1C(N)=O)CCc1ccccc1-2 (stereo not drawn),cytotoxicity at 70.5 h,19.3%
CCNC(=O)[C@@H]1C[C@@H](N)CN1Cc1ccc(-c2ccccc2C#N)o1,cytotoxicity at 70.5 h,-6.11%
Cc1nn(C)c(C)c1CCC(=O)N1CCCC(n2cncn2)C1 (stereo not drawn),cytotoxicity at 70.5 h,-6.31%
CCn1cnnc1C1CCN(C(=O)c2cc3c(s2)CCCC3)CC1,cytotoxicity at 70.5 h,-9.56%
O=C(Cc1cccc(O)c1)NCCNc1nccc(C(F)(F)F)n1,cytotoxicity at 70.5 h,-7.29%
CCN1CCCC1CNC(=O)CCc1cccs1 (stereo not drawn),cytotoxicity at 70.5 h,-3.71%
Cc1cc(C(=O)N2CC[C@H](N3CCN(C)CC3)[C@H](CCCO)C2)n(C)n1,cytotoxicity at 70.5 h,-6.07%
CCN(CC)C(=O)[C@@H]1C[C@H](N)CN1C(=O)c1cc2c([nH]c1=O)CCC2,cytotoxicity at 70.5 h,14.4%
CS(=O)(=O)N1CCCC12CCCN(S(=O)(=O)c1cccc(F)c1)C2 (stereo not drawn),cytotoxicity at 70.5 h,2.16%
CC(C)N1Cc2c(C(=O)N3CCN(C)CC3)nn(C)c2C1,cytotoxicity at 70.5 h,-0.433%
O=c1c(CN2CCCCC2)coc2ccc(Cl)cc12,cytotoxicity at 70.5 h,-7.22%
Cc1cnn(CCNCC(=O)NCC2(c3ccccc3)CCC2)c1,cytotoxicity at 70.5 h,22.8%
COCCN1CCCC1(C)c1nc(C)cc(N)n1 (stereo not drawn),cytotoxicity at 70.5 h,0.23%
CCn1nc(C)cc1C(=O)OCC1CC(=O)N(Cc2ccccc2)C1 (stereo not drawn),cytotoxicity at 70.5 h,0.617%
O=C(O)[C@@H]1CN(C(=O)NCC2CCCCC2)C[C@H]1c1ccccn1,cytotoxicity at 70.5 h,-2.76%
CN(C)Cc1cn2c(n1)CN(CC1CCCC1)CC2,cytotoxicity at 70.5 h,-6.79%
COc1c(C2CCCN2C(=O)c2c(C)noc2C)c(C)nn1C (stereo not drawn),cytotoxicity at 70.5 h,-8.08%
O=C(CC1CNCCO1)N1CCC(c2cc(N3CCCC3)ncn2)CC1 (stereo not drawn),cytotoxicity at 70.5 h,12.3%
Cc1nc(C)n(Cc2cccc(NC(=O)NC(C)(CO)C3CC3)c2)n1 (stereo not drawn),cytotoxicity at 70.5 h,-6.87%
Cn1cc(NC(=O)N2CCN(Cc3cscn3)CC2)ccc1=O,cytotoxicity at 70.5 h,-9.04%
O=c1[nH]cc(Nc2ccccc2)c(=O)[nH]1,cytotoxicity at 70.5 h,35%
CN1CCC(CNC(=O)NCc2ccc(N(C)C)cc2)CC1,cytotoxicity at 70.5 h,-2.97%
O=c1ccc2c(n1CC1CC1)CCN(c1ncccn1)CC2,cytotoxicity at 70.5 h,-4.49%
CNc1cncc(C2CCCN2Cc2ccnc(N3CCCC3)n2)n1 (stereo not drawn),cytotoxicity at 70.5 h,16.1%
Cc1nn(C)cc1CN1CCc2nc3sccc3c(=O)n2CC1,cytotoxicity at 70.5 h,-9.47%
Cc1cc2n(n1)CC(CNCCc1cnn(C)c1)CN2 (stereo not drawn),cytotoxicity at 70.5 h,34.9%
Cc1nc(CCNC(=O)Nc2cc(C(F)(F)F)c[nH]c2=O)cs1,cytotoxicity at 70.5 h,-6.32%
O=C(CN1CCCCC1)NCc1cccnc1-n1cnc2ccccc21,cytotoxicity at 70.5 h,-4.51%
COc1cccc(CNc2nc(C)cc(C)n2)c1OC,cytotoxicity at 70.5 h,-2.87%
CC(C)c1nccc([C@H]2C[C@@H]3CCN(Cc4ccoc4)C[C@H]3O2)n1,cytotoxicity at 70.5 h,-4.74%
Cc1ccc(-c2cc(C(=O)NCCN3CCOCC3)n[nH]2)s1,cytotoxicity at 70.5 h,-3.46%
CN(Cc1ccccc1)CC(O)Cn1cnc2sccc2c1=O (stereo not drawn),cytotoxicity at 70.5 h,-8.79%
O=C(c1ccco1)N1CC[C@@H]2O[C@@H](COCCN3CCCC3)CC[C@@H]21,cytotoxicity at 70.5 h,-3.08%
CC(C)[C@H](NC(=O)NC1CCS(=O)(=O)C1)C(=O)NCc1cccnc1 (stereo partly drawn),cytotoxicity at 70.5 h,6.1%
c1cnc(Nc2cc(CCC3CCNCC3)ccn2)cn1,cytotoxicity at 70.5 h,5.45%
CCCc1noc(CN2CCC(C(=O)Nc3cnn(CC)c3)CC2)n1,cytotoxicity at 70.5 h,-14.6%
COc1cc(F)c(S(=O)(=O)NCc2ccnc(N(C)C)n2)cc1OC,cytotoxicity at 70.5 h,-8.38%
Cc1nc(N2C[C@@H](CN3CCCCC3)[C@@H](CO)C2)c2sccc2n1,cytotoxicity at 70.5 h,8.31%
Cc1cnc(N(C)Cc2cnc3ccccc3n2)nc1N(C)C,cytotoxicity at 70.5 h,-14.7%
CC(=O)N1CCCC1CCc1ccnc(-c2cncnc2)c1 (stereo not drawn),cytotoxicity at 70.5 h,-2.53%
Cc1c(-c2ccccc2)ncn1CC(c1cccnc1)N1CCOCC1 (stereo not drawn),cytotoxicity at 70.5 h,-2.03%
CCS(=O)(=O)N1CCC(NCC2CNc3cc(C)nn3C2)CC1 (stereo not drawn),cytotoxicity at 70.5 h,19.2%
COc1ccc(-n2cc(CCO)cn2)cc1C,cytotoxicity at 70.5 h,-9.33%
CN(Cc1n[nH]c2c1CCCC2)c1nc2c(c(=O)[nH]1)CCNCC2,cytotoxicity at 70.5 h,-4.95%
Cc1ccn(-c2ccccc2NCc2cccnc2)n1,cytotoxicity at 70.5 h,5.47%
Cn1cc(C[C@H]2[C@@H](O)CCN2C(=O)c2ccc[nH]2)cn1,cytotoxicity at 70.5 h,-10.8%
COc1ccc(NC(=O)C2CCCO2)cc1OCc1cccnc1 (stereo not drawn),cytotoxicity at 70.5 h,49.9%
Cn1nccc1-c1nc2c(cc1C(=O)O)CCN(CC1CC1)CC2,cytotoxicity at 70.5 h,12.7%
O=C(CCc1ccncc1)Nc1ccc(OCC2CC2)cc1,cytotoxicity at 70.5 h,-11.9%
C[C@@H]1CN(C(=O)c2ccsc2)C[C@]12CCN(c1ccsc1)C2=O,cytotoxicity at 70.5 h,1.23%
COc1ccc(CN2CCSCC2)c(OC)c1,cytotoxicity at 70.5 h,-6.31%
CCc1onc(C)c1C(=O)N1CCN(c2ncc3c(n2)CCOC3)CC1,cytotoxicity at 70.5 h,-1.33%
CCC(CO)(CO)NC(=O)C1CCC(=O)N(CCc2ccccc2)C1 (stereo not drawn),cytotoxicity at 70.5 h,-10.4%
CS(=O)(=O)NCC1CCCN(C(=O)Nc2cccnc2N2CCCC2)C1 (stereo not drawn),cytotoxicity at 70.5 h,-0.725%
Cc1nn(C)cc1C1CC(=O)Nc2c1cnn2C(C)(C)C (stereo not drawn),cytotoxicity at 70.5 h,-4.68%
CCC(=O)N1CCN(C(=O)Cn2cccn2)CC1,cytotoxicity at 70.5 h,-4.66%
Cc1ccc(-c2noc(C(C)(C)NS(C)(=O)=O)n2)cc1F,cytotoxicity at 70.5 h,-2.69%
CC(=O)c1ccc(S(=O)(=O)Nc2cnn(C3CCOCC3)c2)cc1,cytotoxicity at 70.5 h,6.82%
O=C(c1cccnc1)N1CCO[C@@H]2CNC[C@@H]21,cytotoxicity at 70.5 h,-4.67%
CN(C)C(=O)COC[C@H]1CC[C@@H]2[C@@H](CCN2Cc2ccco2)O1,cytotoxicity at 70.5 h,7.59%
CCN(CC)[C@H]1C[C@@H](Cc2cc(CO)on2)C1(C)C,cytotoxicity at 70.5 h,-7.1%
CC(C)NC(=O)[C@@H]1CN(C(=O)C2CC2)C[C@]12Cc1ccccc1C(=O)N2,cytotoxicity at 70.5 h,-3.78%
CCCc1nc(NCCCn2ccnc2)c2c(n1)c(C)nn2CC,cytotoxicity at 70.5 h,-11.1%
COc1ccncc1NCc1cscn1,cytotoxicity at 70.5 h,-0.709%
COc1ccc(SC(C)C(=O)N2CCC(C(=O)N3CCCC3)CC2)cc1 (stereo not drawn),cytotoxicity at 70.5 h,-5.49%
CN(Cc1cc2n(n1)CCCNC2)Cc1n[nH]c2c1CCC2,cytotoxicity at 70.5 h,-13.3%
COCC1CC2(CCN(c3ccccn3)CC2)CN1C(C)C (stereo not drawn),cytotoxicity at 70.5 h,-11.6%
O=C(CCS(=O)(=O)c1ccccc1)N1CCCC(n2cccn2)C1 (stereo not drawn),cytotoxicity at 70.5 h,-2.57%
COC(=O)c1ccoc1CN(C)CC(=O)N(C)C,cytotoxicity at 70.5 h,-8.41%
CC(=O)NCc1cc(-c2cccs2)n(C2CCCC2)n1,cytotoxicity at 70.5 h,-2.19%
COc1ccc(C(C)Nc2ncnc3c2NC(=O)CN3)cc1 (stereo not drawn),cytotoxicity at 70.5 h,-14.1%
CCCC(=O)N1CCOC2(COCCN(CC(=O)NC)C2)C1 (stereo not drawn),cytotoxicity at 70.5 h,-10.5%
Cc1cc(C[C@@H]2CCC[C@H]2NCc2c[nH]nc2-c2ccccc2)on1,cytotoxicity at 70.5 h,20.7%
COC(C)Cc1nc(-c2cnn3c(C)cc(C)nc23)no1 (stereo not drawn),cytotoxicity at 70.5 h,-97.5%
CC(C)Cn1cnnc1C1CCCN1C(=O)c1cc2ccccn2c1 (stereo not drawn),cytotoxicity at 70.5 h,14.5%
O=c1[nH]c(NC2CCCC2)nc2nccc(-c3cccs3)c12,cytotoxicity at 70.5 h,-4.19%
CCc1c(C(=O)NC2CCS(=O)(=O)C2)cnn1-c1ccc(F)cc1 (stereo not drawn),cytotoxicity at 70.5 h,-22.6%
O=C(Cc1cccs1)N1CC(c2nc(-c3cnccn3)no2)C1,cytotoxicity at 70.5 h,-6.93%
O=C(Nc1cnccn1)[C@H]1COC[C@H]2CN(c3ncc(F)cn3)C[C@H]21,cytotoxicity at 70.5 h,-5.25%
COCC1c2nnn(CC3CC3)c2CCN1C(=O)c1cccn1C (stereo not drawn),cytotoxicity at 70.5 h,9.68%
O=C(Cn1ccnc1)N1C[C@@H]2CC[C@H](Oc3ccccc3)[C@@H]2C1,cytotoxicity at 70.5 h,-3%
